{"source": "patent US11229590B2", "about": "“Sunscreen formulation” (priority 2018, dated 2022)", "key": {"[1]": {"assay": "4-Methoxy-benzylamine formulation mice skin penetration test (plasma level by HPLC)", "assay_type": "in vivo", "details": "topical on mouse back", "method": "Mice Test Procedures: • 1. […] The 12 mice were randomly divided into two groups. […] Add methanol and acetonitrile 200 μL, respectively. […] Precisely transfer the supernatant solution to another test tube. At 40° C. blow N2 through to dryness. […] Supernatant solution was used directly for HPLC analysis. • 4."}, "[2]": {"assay": "Urine samples collected 2007-2009 from Californian females", "assay_type": "in vivo, human", "details": "from 22.9 ng/mL to 200 ng/mL", "method": "Since the first day of sunscreen usage in 1930s, the exposure to sunscreen agents has begun. Initially, the scope and frequency of the sunscreen usage among the human population were very limited. Therefore, the levels of UV filters found in human samples were usually low. However, for the last 20 years, the situation changed dramatically. In one epidemiological study conducted in 2003-2004, 2517 urine samples from United States general population were analyzed for the presence of oxybenzone (benzophenone-3, bp-3), as part of the 2003-2004 National Health and Nutrition Examination Survey [A. M. Calafat, L. Y. Wong, X. YE, J. A. Reidy, L. L. Needham, Concentrations of the sunscreen agent benzophenone-3 in residents of the United States: National Health and nutrition Examination Survey 2003-2004, Environ. Health Perspect, 116 (2008) 893-897]. Oxybenzone was detected in 97% of the all samples with mean concentration of 22.9 ng/ml and 95th percentile concentration of 1040 ng/ml. As the data indicates, the sunscreen agent occurrences are wide spread. […] 543 (2016) 28-36]. […] About nine times higher than previously reported levels of oxybenzone (up to 13000 ng/ml, average around 200 ng/ml) were found in urine samples collected in 2007-2009 from Californian females, which is probably a result of specific demographics [C. […]"}, "[3]": {"details": "2517 urine samples, 2003-2004; cited from earlier work"}, "[4]": {"details": "couples, samples 2005-2009; cited from earlier work"}, "[5]": {"details": "Californian females, 2007-2009; cited from earlier work"}, "[6]": {"details": "formulation containing 10%, daily 2 mg/cm^2 for a week, cited from earlier work"}, "[7]": {"details": "maternal urine, gestational weeks 6-30; cited from earlier work"}}, "data": [{"compound": "COc1ccc(CN)cc1", "note": "[4-methoxy-benzylamine]", "values": [{"measurement": "skin penetration in mice", "setting": "[1]", "value": "could not penetrate the skin of mice"}]}, {"compound": "COc1ccc(C(=O)c2ccccc2)c(O)c1", "note": "[oxybenzone, 2-hydroxy-4-methoxybenzophenone]", "values": [{"measurement": "increase of average concentration in urine sample compared to 2003-2004 study", "setting": "[2]", "value": "more than 9 folds"}, {"measurement": "95th percentile concentration in urine", "setting": "[3]", "value": 1040, "unit": "ng/mL"}, {"measurement": "mean concentration in urine", "setting": "[3]", "value": 22.9, "unit": "ng/mL"}, {"measurement": "share of urine samples in which detected", "setting": "[3]", "value": 97, "unit": "%"}, {"measurement": "rank among urinary benzophenone-type UV filters in the study population", "setting": "[4]", "value": "most predominant"}, {"measurement": "average level in urine samples", "setting": "[5]", "value": "around 200 ng/ml"}, {"measurement": "highest level in urine samples", "setting": "[5]", "value": "up to 13000 ng/ml"}, {"measurement": "maximum plasma concentration, females", "setting": "[6]", "value": 200, "unit": "ng/mL"}, {"measurement": "mean urine concentration, females", "setting": "[6]", "value": 60, "unit": "ng/mL"}, {"measurement": "maximum plasma concentration, males", "setting": "[6]", "value": 300, "unit": "ng/mL"}, {"measurement": "mean urine concentration, males", "setting": "[6]", "value": 140, "unit": "ng/mL"}, {"measurement": "correlation of maternal urinary levels with overall weight and head circumference of the baby", "setting": "[7]", "value": "positively correlated"}]}, {"compound": "Cc1ccc(C=C2C(=O)C3(C)CCC2C3(C)C)cc1", "note": "(stereo not drawn) [4-methylbenzylidene camphor]", "values": [{"measurement": "maximum plasma concentration, females", "setting": "[6]", "value": 20, "unit": "ng/mL"}, {"measurement": "mean urine concentration, females", "setting": "[6]", "value": 5, "unit": "ng/mL"}, {"measurement": "maximum plasma concentration, males", "setting": "[6]", "value": 20, "unit": "ng/mL"}, {"measurement": "mean urine concentration, males", "setting": "[6]", "value": 7, "unit": "ng/mL"}]}, {"compound": "CCCCC(CC)COC(=O)C=Cc1ccc(OC)cc1", "note": "(stereo not drawn) [octyl methoxycinnamate]", "values": [{"measurement": "maximum plasma concentration, females", "setting": "[6]", "value": 10, "unit": "ng/mL"}, {"measurement": "mean urine concentration, females", "setting": "[6]", "value": 5, "unit": "ng/mL"}, {"measurement": "maximum plasma concentration, males", "setting": "[6]", "value": 2, "unit": "ng/mL"}, {"measurement": "mean urine concentration, males", "setting": "[6]", "value": 8, "unit": "ng/mL"}]}]}
